Reference: ChEMBL document CHEMBL1201861, “Genomics of Drug Sensitity in Cancer screening data, Wellcome Trust Sanger Institute”

Experiments:
SW780 = experiment: cells; type: functional, cell-based; conditions: Homo sapiens;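 further: growth inhibition of the cells, read out with a cell viability assay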
Description: SANGER: Inhibition of human SW780 cell growth in a cell viability assay.

NCI-H1693 = experiment: cells; type: functional, cell-based; conditions: Homo sapiens;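 further: growth inhibition of the human cell line, read out with a cell viability assay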
Description: SANGER: Inhibition of human NCI-H1693 cell growth in a cell viability assay.

OAW-28 = experiment: cells; type: functional, cell-based; conditions: Homo sapiens;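 further: growth inhibition of OAW-28 cells, read out with a cell viability assay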
Description: SANGER: Inhibition of human OAW-28 cell growth in a cell viability assay.

M059J = experiment: cells; type: functional, cell-based; conditions: Homo sapiens;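 further: growth inhibition of M059J cells, read out with a cell viability assay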
Description: SANGER: Inhibition of human M059J cell growth in a cell viability assay.

KYSE-410 = experiment: cells; type: functional, cell-based; conditions: Homo sapiens;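 further: growth inhibition of KYSE-410 cells, measured through a cell viability readout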
Description: SANGER: Inhibition of human KYSE-410 cell growth in a cell viability assay.

SW1417 = experiment: cells; type: functional, cell-based; conditions: Homo sapiens;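 further: growth inhibition of human SW1417 cells, read out with a cell viability assay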
Description: SANGER: Inhibition of human SW1417 cell growth in a cell viability assay.

BT-20 = experiment: cells; type: functional, cell-based; conditions: Homo sapiens;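 further: cell viability assay measuring suppression of growth in human BT-20 cells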
Description: SANGER: Inhibition of human BT-20 cell growth in a cell viability assay.

MDA-MB-361 = experiment: cells; type: functional, cell-based; conditions: Homo sapiens
HT1197 = experiment: cells; type: functional, cell-based, HT-1197; conditions: Homo sapiens
Description: SANGER: Inhibition of human HT-1197 cell growth in a cell viability assay.

AGS = experiment: cells; type: functional, cell-based; conditions: Homo sapiens;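 further: growth inhibition of AGS cells, determined with a cell viability assay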
Description: SANGER: Inhibition of human AGS cell growth in a cell viability assay.

SK-OV-3 = experiment: cells; type: functional, cell-based; conditions: Homo sapiens;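 further: growth inhibition of SK-OV-3 human cells, read out with a cell viability assay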
Description: SANGER: Inhibition of human SK-OV-3 cell growth in a cell viability assay.

A204 = experiment: cells; type: functional, cell-based; conditions: Homo sapiens;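 further: growth inhibition of human A204 cells, read out with a cell viability assay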
Description: SANGER: Inhibition of human A204 cell growth in a cell viability assay.

CAKI-1 = experiment: cells; type: functional, cell-based; conditions: Homo sapiens;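 further: growth inhibition of CAKI-1 cells, measured by a cell viability assay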
Description: SANGER: Inhibition of human CAKI-1 cell growth in a cell viability assay.

BHY = experiment: cells; type: functional, cell-based; conditions: Homo sapiens;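 further: cell growth inhibition read out by a viability assay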
Description: SANGER: Inhibition of human BHY cell growth in a cell viability assay.

SNU-423 = experiment: cells; type: functional, cell-based; conditions: Homo sapiens
Description: SANGER: Inhibition of human SNU-423 cell growth in a cell viability assay.

HEC-1 = experiment: cells; type: functional, cell-based; conditions: Homo sapiens;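 further: growth inhibition of the cell line, read out with a cell viability assay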
Description: SANGER: Inhibition of human HEC-1 cell growth in a cell viability assay.

HSC-3 = experiment: cells; type: functional, cell-based; conditions: Homo sapiens
Description: SANGER: Inhibition of human HSC-3 cell growth in a cell viability assay.

GMS-10 = experiment: cells; type: functional, cell-based; conditions: Homo sapiens;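 further: growth inhibition of GMS-10 cells, read out as cell viability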
Description: SANGER: Inhibition of human GMS-10 cell growth in a cell viability assay.

MFH-ino = experiment: cells; type: functional, cell-based, Homo sapiens; conditions: Homo sapiens, MFH-ino;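 further: growth inhibition of human MFH-ino cells, read out by a cell viability assay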
Description: SANGER: Inhibition of human MFH-ino cell growth in a cell viability assay.

MIA PaCa-2 = experiment: cells; type: functional, cell-based; conditions: Homo sapiens;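 further: growth inhibition of MIA PaCa-2 cells, read out with a cell viability assay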
Description: SANGER: Inhibition of human MIA-PaCa-2 cell growth in a cell viability assay.

NCI-H1993 = experiment: cells; type: functional, cell-based; conditions: Homo sapiens;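 further: growth inhibition of the cancer cell line, assessed with a cell viability assay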
Description: SANGER: Inhibition of human NCI-H1993 cell growth in a cell viability assay.

LN-405 = experiment: cells; type: functional, cell-based; conditions: Homo sapiens
Description: SANGER: Inhibition of human LN-405 cell growth in a cell viability assay.

DMS-79 = experiment: cells; type: functional, cell-based, Homo sapiens; conditions: Homo sapiens, DMS-79
Description: SANGER: Inhibition of human DMS-79 cell growth in a cell viability assay.

CWR22R = experiment: cells; type: functional, cell-based; conditions: Homo sapiens, 22Rv1;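 further: growth inhibition of 22Rv1 cells, read out with a cell viability assay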
Description: SANGER: Inhibition of human 22RV1 cell growth in a cell viability assay.

EFO-21 = experiment: cells; type: functional, cell-based; conditions: Homo sapiens;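 further: growth inhibition of EFO-21 cells measured with a viability assay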
Description: SANGER: Inhibition of human EFO-21 cell growth in a cell viability assay.

T-24 = experiment: cells; type: functional, cell-based; conditions: Homo sapiens;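 further: growth inhibition of T-24 cells, read out with a cell viability assay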
Description: SANGER: Inhibition of human T-24 cell growth in a cell viability assay.

MeWo = experiment: cells; type: functional, cell-based; conditions: Homo sapiens;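 further: growth inhibition of MeWo cells, determined by a cell viability readout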
Description: SANGER: Inhibition of human Mewo cell growth in a cell viability assay.

EW-22 = experiment: cells; type: functional, cell-based; conditions: Homo sapiens;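 further: growth inhibition of the EW-22 cell line, measured with a cell viability readout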
Description: SANGER: Inhibition of human EW-22 cell growth in a cell viability assay.

A2058 = experiment: cells; type: functional, cell-based; conditions: Homo sapiens;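 further: reduction of A2058 cell growth, read out with a viability assay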
Description: SANGER: Inhibition of human A2058 cell growth in a cell viability assay.

MEL-HO = experiment: cells; type: functional, cell-based; conditions: Homo sapiens
Description: SANGER: Inhibition of human MEL-HO cell growth in a cell viability assay.

Hs-578T = experiment: cells; type: functional, cell-based; conditions: Homo sapiens
Description: SANGER: Inhibition of human Hs-578-T cell growth in a cell viability assay.

P12-Ichikawa = experiment: cells; type: functional, cell-based; conditions: Homo sapiens
RT-112 = experiment: cells; type: functional, cell-based; conditions: Homo sapiens
Description: SANGER: Inhibition of human RT-112 cell growth in a cell viability assay.

MDA-MB-175-VII = experiment: cells; type: functional, cell-based; conditions: Homo sapiens
TYK-nu = experiment: cells; type: functional, cell-based; conditions: Homo sapiens;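 further: growth inhibition of human TYK-nu cells, read out by a cell viability assay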
Description: SANGER: Inhibition of human TYK-nu cell growth in a cell viability assay.

HT-3 = experiment: cells; type: functional, cell-based; conditions: Homo sapiens;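 further: growth inhibition measured with a cell viability readout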
Description: SANGER: Inhibition of human HT-3 cell growth in a cell viability assay.

UACC-62 = experiment: cells; type: functional, cell-based; conditions: Homo sapiens;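 further: growth inhibition of human UACC-62 cells, read out by a cell viability assay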
Description: SANGER: Inhibition of human UACC-62 cell growth in a cell viability assay.

SW-620 = experiment: cells; type: functional, cell-based; conditions: Homo sapiens;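 further: growth inhibition of human SW-620 cells, measured by a cell viability assay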
Description: SANGER: Inhibition of human SW620 cell growth in a cell viability assay.

HSC-4 = experiment: cells; type: functional, cell-based; conditions: Homo sapiens;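 further: growth inhibition of human HSC-4 cells, read out with a cell viability assay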
Description: SANGER: Inhibition of human HSC-4 cell growth in a cell viability assay.

G-401 = experiment: cells; type: functional, cell-based; conditions: Homo sapiens
Description: SANGER: Inhibition of human G-401 cell growth in a cell viability assay.

CAL-72 = experiment: cells; type: functional, cell-based; conditions: Homo sapiens;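 further: cell viability assay measuring inhibition of proliferation in the CAL-72 cell line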
Description: SANGER: Inhibition of human CAL-72 cell growth in a cell viability assay.

SN12C = experiment: cells; type: functional, cell-based; conditions: Homo sapiens;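 further: growth inhibition of human SN12C cells, measured by a cell viability assay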
Description: SANGER: Inhibition of human SN12C cell growth in a cell viability assay.

RO82-W-1 = experiment: cells; type: functional, cell-based; conditions: Homo sapiens;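 further: growth inhibition of human RO82-W-1 cells, measured with a cell viability assay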
Description: SANGER: Inhibition of human RO82-W-1 cell growth in a cell viability assay.

Calu-3 = experiment: cells; type: functional, cell-based; conditions: Homo sapiens;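 further: growth inhibition of human Calu-3 cells, determined with a cell viability assay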
Description: SANGER: Inhibition of human Calu-3 cell growth in a cell viability assay.

Capan-2 = experiment: cells; type: functional, cell-based; conditions: Homo sapiens;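 further: Capan-2 cell growth inhibition, read out with a viability assay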
Description: SANGER: Inhibition of human Capan-2 cell growth in a cell viability assay.

LC-1F = experiment: cells; type: functional, cell-based, Homo sapiens; conditions: Homo sapiens, LC-1F;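 further: growth inhibition of human LC-1F cells, read out with a cell viability assay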
Description: SANGER: Inhibition of human LC-1F cell growth in a cell viability assay.

NCI-H1417 = experiment: cells; type: functional, cell-based, Homo sapiens; conditions: Homo sapiens, NCI-H1417;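 further: human NCI-H1417 cells, growth inhibition determined with a cell viability readout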
Description: SANGER: Inhibition of human NCI-H1417 cell growth in a cell viability assay.

NCI-H1882 = experiment: cells; type: functional, cell-based, Homo sapiens; conditions: Homo sapiens, NCI-H1882;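 further: growth inhibition of the cell line, determined with a viability assay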
Description: SANGER: Inhibition of human NCI-H1882 cell growth in a cell viability assay.

IST-SL2 = experiment: cells; type: functional, cell-based, Homo sapiens; conditions: Homo sapiens, IST-SL2;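 further: growth inhibition of human IST-SL2 cells, read out by a cell viability assay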
Description: SANGER: Inhibition of human IST-SL2 cell growth in a cell viability assay.

CPC-N = experiment: cells; type: functional, cell-based, Homo sapiens; conditions: Homo sapiens, CPC-N;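 further: growth inhibition of CPC-N cells, with a cell viability assay as the readout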
Description: SANGER: Inhibition of human CPC-N cell growth in a cell viability assay.

NCI-H2196 = experiment: cells; type: functional, cell-based, Homo sapiens; conditions: Homo sapiens, NCI-H2196; read-out: IC50;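 further: cell viability assay used as the readout of growth inhibition in NCI-H2196 cells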
Description: SANGER: Inhibition of human NCI-H2196 cell growth in a cell viability assay.

SK-MM-2 = experiment: cells; type: functional, cell-based, Homo sapiens; conditions: Homo sapiens, SK-MM-2;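 further: growth inhibition of human SK-MM-2 cells, read out with a cell viability assay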
Description: SANGER: Inhibition of human SK-MM-2 cell growth in a cell viability assay.

MONO-MAC-6 = experiment: cells; type: functional, cell-based, Homo sapiens; conditions: Homo sapiens, MONO-MAC-6;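 further: cell viability assay measuring growth inhibition of human MONO-MAC-6 cells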
Description: SANGER: Inhibition of human MONO-MAC-6 cell growth in a cell viability assay.

SCC-3 = experiment: cells; type: functional, cell-based, Homo sapiens; conditions: Homo sapiens, SCC-3;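 further: cell viability assay measuring inhibition of SCC-3 cell growth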
Description: SANGER: Inhibition of human SCC-3 cell growth in a cell viability assay.

EB2 = experiment: cells; type: functional, cell-based, Homo sapiens; conditions: Homo sapiens, EB2;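 further: growth inhibition of EB2 cells, read out with a cell viability assay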
Description: SANGER: Inhibition of human EB2 cell growth in a cell viability assay.

WSU-NHL = experiment: cells; type: functional, cell-based, Homo sapiens; conditions: Homo sapiens, WSU-NHL;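 further: growth inhibition of human WSU-NHL cells, read out with a cell viability assay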
Description: SANGER: Inhibition of human WSU-NHL cell growth in a cell viability assay.

DG-75 = experiment: cells; type: functional, cell-based, Homo sapiens; conditions: Homo sapiens, DG-75;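 further: growth inhibition of DG-75 cells, read out with a cell viability assay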
Description: SANGER: Inhibition of human DG-75 cell growth in a cell viability assay.

YT = experiment: cells; type: functional, cell-based, Homo sapiens; conditions: Homo sapiens, YT
Description: SANGER: Inhibition of human YT cell growth in a cell viability assay.

COR-L279 = experiment: SANGER: Inhibition of human COR-L279 cell growth in a cell viability assay.; type: functional, cell-based; conditions: Homo sapiens, COR-L279
SJRH30 = experiment: cells; type: functional, cell-based; conditions: Homo sapiens;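 further: growth inhibition of human SJRH30 cells, read out with a cell viability assay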
Description: SANGER: Inhibition of human SJRH30 cell growth in a cell viability assay.

`NC(=O)Nc1cc(-c2cccc(F)c2)sc1C(=O)N[C@H]1CCCNC1` [AZD-7762] gave an IC50 (SW780) of 1200 nM, an IC50 (NCI-H1693) of 1230 nM and an IC50 (OAW-28) of 1850 nM. For the same compound, the IC50 (M059J) was 1070 nM, the IC50 (KYSE-410) was 1040 nM and the IC50 (SW1417) was 736 nM. For the same compound, the IC50 (BT-20) was 1720 nM, the IC50 (MDA-MB-361) was 299 nM and the IC50 (HT1197) was > 2000 nM. The IC50 (AGS) was 582 nM, the IC50 (SK-OV-3) was > 2000 nM and the IC50 (A204) was 8.56 nM. The IC50 (CAKI-1) was 287 nM, the IC50 (BHY) was 688 nM and the IC50 (SNU-423) was 535 nM. The IC50 (HEC-1) was 814 nM, the IC50 (HSC-3) was 486 nM and the IC50 (GMS-10) was 1350 nM. The IC50 (MFH-ino) was > 2000 nM, the IC50 (MIA PaCa-2) was 375 nM and the IC50 (NCI-H1993) was > 2000 nM. The IC50 (LN-405) was 877 nM, the IC50 (DMS-79) was > 2000 nM and the IC50 (CWR22R) was 1810 nM. The IC50 (EFO-21) was > 2000 nM, the IC50 (T-24) was 370 nM and the IC50 (MeWo) was 304 nM. For the same compound, the IC50 (EW-22) was 584 nM, the IC50 (A2058) was 451 nM and the IC50 (MEL-HO) was 979 nM. For the same compound, the IC50 (Hs-578T) was 453 nM, the IC50 (P12-Ichikawa) was 43.2 nM and the IC50 (RT-112) was 499 nM. The IC50 (MDA-MB-175-VII) was > 2000 nM, the IC50 (TYK-nu) was 281 nM and the IC50 (HT-3) was 490 nM. It also gave an IC50 (UACC-62) of 776 nM, an IC50 (SW-620) of 662 nM and an IC50 (HSC-4) of 106 nM. For the same compound, the IC50 (G-401) was > 2000 nM, the IC50 (CAL-72) was > 2000 nM and the IC50 (SN12C) was 1120 nM. The IC50 (RO82-W-1) was > 2000 nM, the IC50 (Calu-3) was > 2000 nM and the IC50 (Capan-2) was > 2000 nM.

Compound `CC(C)C[C@H](NC(=O)[C@H](Cc1ccccc1)NC(=O)c1cnccn1)B(O)O` [BORTEZOMIB] has an IC50 (LC-1F) of 3.74 nM, an IC50 (NCI-H1417) of 5.51 nM and an IC50 (NCI-H1882) of 1.2 nM. For the same compound, the IC50 (IST-SL2) was 1.31 nM, the IC50 (CPC-N) was > 20 nM and the IC50 (NCI-H2196) was 6.8 nM. The IC50 (MFH-ino) was 0.443 nM, the IC50 (DMS-79) was > 20 nM and the IC50 (SK-MM-2) was 1.09 nM. The IC50 (EW-22) was > 20 nM, the IC50 (MONO-MAC-6) was 3.1 nM and the IC50 (SCC-3) was 2.37 nM. The IC50 (EB2) was 18.1 nM, the IC50 (WSU-NHL) was > 20 nM and the IC50 (DG-75) was 18.6 nM. The IC50 (YT) was > 20 nM and the IC50 (COR-L279) was > 20 nM.

With `C[C@@H](Oc1cc(-c2cnn(C3CCNCC3)c2)cnc1N)c1c(Cl)ccc(F)c1Cl` [CRIZOTINIB] the IC50 (LC-1F) was > 2000 nM, the IC50 (NCI-H1417) was > 2000 nM and the IC50 (NCI-H1882) was > 2000 nM. For the same compound, the IC50 (IST-SL2) was > 2000 nM, the IC50 (CPC-N) was > 2000 nM and the IC50 (NCI-H2196) was > 2000 nM. The IC50 (MFH-ino) was > 2000 nM, the IC50 (DMS-79) was > 2000 nM and the IC50 (SK-MM-2) was > 2000 nM. For the same compound, the IC50 (EW-22) was > 2000 nM, the IC50 (MONO-MAC-6) was > 2000 nM and the IC50 (SCC-3) was 357 nM. The IC50 (EB2) was > 2000 nM, the IC50 (WSU-NHL) was > 2000 nM and the IC50 (DG-75) was > 2000 nM. For the same compound, the IC50 (YT) was > 2000 nM and the IC50 (COR-L279) was > 2000 nM.

`CN(NC(=O)CC(=O)NN(C)C(=S)c1ccccc1)C(=S)c1ccccc1` [ELESCLOMOL] was tested, and the IC50 (SW780) was 30.3 nM, the IC50 (NCI-H1693) was 9.09 nM and the IC50 (OAW-28) was > 200 nM. The IC50 (M059J) was 20.6 nM, the IC50 (KYSE-410) was 19.7 nM and the IC50 (SW1417) was > 200 nM. For the same compound, the IC50 (BT-20) was 35.2 nM, the IC50 (SJRH30) was 100 nM and the IC50 (MDA-MB-361) was 25.9 nM. It also gave an IC50 (HT1197) of 21.8 nM, an IC50 (AGS) of 2.86 nM and an IC50 (SK-OV-3) of 3.75 nM. It also gave an IC50 (A204) of 8.85 nM, an IC50 (CAKI-1) of 24.1 nM and an IC50 (BHY) of 107 nM. It also gave an IC50 (SNU-423) of 15.2 nM, an IC50 (HEC-1) of 8.25 nM and an IC50 (HSC-3) of 3.02 nM. The IC50 (GMS-10) was 107 nM, the IC50 (MFH-ino) was > 200 nM and the IC50 (MIA PaCa-2) was 17.1 nM. For the same compound, the IC50 (NCI-H1993) was > 200 nM, the IC50 (LN-405) was 87.8 nM and the IC50 (DMS-79) was > 200 nM. The IC50 (CWR22R) was 11.3 nM, the IC50 (EFO-21) was 149 nM and the IC50 (T-24) was 1.55 nM. For the same compound, the IC50 (MeWo) was 26.3 nM, the IC50 (EW-22) was 74.7 nM and the IC50 (A2058) was 13.9 nM. For the same compound, the IC50 (MEL-HO) was > 200 nM, the IC50 (Hs-578T) was 15.5 nM and the IC50 (P12-Ichikawa) was 4.04 nM. The IC50 (RT-112) was 14.2 nM, the IC50 (MDA-MB-175-VII) was > 200 nM and the IC50 (TYK-nu) was 12.4 nM. The IC50 (HT-3) was > 200 nM, the IC50 (UACC-62) was 23.2 nM and the IC50 (SW-620) was 40.7 nM. The IC50 (HSC-4) was 4.8 nM, the IC50 (G-401) was 5.43 nM and the IC50 (CAL-72) was 3.02 nM. The IC50 (SN12C) was 28.4 nM, the IC50 (RO82-W-1) was 26.2 nM and the IC50 (Calu-3) was > 200 nM. For the same compound, the IC50 (Capan-2) was > 200 nM.
